# From ChEMBL document CHEMBL4308841, “Synthesis, in vitro antiproliferative activity, and kinase inhibitory effects of pyrazole-containing diarylureas and diarylamides” (Eur J Med Chem, 2018)
# Columns and labels:
# TK-10 = assay: Growth inhibition of human TK10 cells assessed as cell growth at 10 uM incubated for 48 hrs by sulforhodamine B assay relative to control; format: functional; details: TK-10, 48 h, read-out: Activity
# NCI-H522 = assay: Growth inhibition of human NCI-H522 cells incubated for 48 hrs by sulforhodamine B assay; format: functional, cell-based; details: NCI-H522, 48 h
# HCT-15 [1] = assay: Growth inhibition of human HCT15 cells incubated for 48 hrs by sulforhodamine B assay; format: functional, cell-based; details: HCT-15, 48 h
# Malme-3M = assay: Growth inhibition of human MALME-3M cells incubated for 48 hrs by sulforhodamine B assay; format: functional, cell-based
# OVCAR-8 = assay: Growth inhibition of human OVCAR8 cells incubated for 48 hrs by sulforhodamine B assay; format: functional, cell-based; details: OVCAR-8, 48 h
# Hs-578T [2] = assay: Growth inhibition of human Hs578T cells incubated for 48 hrs by sulforhodamine B assay; format: functional, cell-based
# HCT-116 [3] = assay: Growth inhibition of human HCT116 cells assessed as cell growth at 0.01 uM incubated for 48 hrs by sulforhodamine B assay relative to control; format: functional; details: HCT-116, 48 h, read-out: Activity
# SNB-19 = assay: Growth inhibition of human SNB19 cells assessed as cell growth at 0.01 uM incubated for 48 hrs by sulforhodamine B assay relative to control; format: functional; details: SNB-19, 48 h, read-out: Activity
# SNB-75 [4] = assay: Growth inhibition of human SNB75 cells assessed as cell growth at 0.01 uM incubated for 48 hrs by sulforhodamine B assay relative to control; format: functional; details: SNB-75, 48 h, read-out: Activity
# RXF 393 = assay: Growth inhibition of human RXF393 cells assessed as cell growth at 0.01 uM incubated for 48 hrs by sulforhodamine B assay relative to control; format: functional; details: RXF 393, 48 h, read-out: Activity
# SR = assay: Growth inhibition of human SR cells assessed as cell growth at 0.1 uM incubated for 48 hrs by sulforhodamine B assay relative to control; format: functional; details: read-out: Activity
# NCI-H23 [5] = assay: Growth inhibition of human NCI-H23 cells assessed as cell growth at 0.1 uM incubated for 48 hrs by sulforhodamine B assay relative to control; format: functional; details: NCI-H23, 48 h, read-out: Activity
# HCT-116 [6] = assay: Growth inhibition of human HCT116 cells assessed as cell growth at 0.1 uM incubated for 48 hrs by sulforhodamine B assay relative to control; format: functional; details: HCT-116, 48 h, read-out: Activity
# SF-268 = assay: Growth inhibition of human SF268 cells assessed as cell growth at 0.1 uM incubated for 48 hrs by sulforhodamine B assay relative to control; format: functional; details: SF-268, 48 h, read-out: Activity
# SNB-75 [7] = assay: Growth inhibition of human SNB75 cells assessed as cell growth at 0.1 uM incubated for 48 hrs by sulforhodamine B assay relative to control; format: functional; details: SNB-75, 48 h, read-out: Activity
# M14 = assay: Growth inhibition of human M14 cells assessed as cell growth at 0.1 uM incubated for 48 hrs by sulforhodamine B assay relative to control; format: functional; details: M14, 48 h, read-out: Activity
# IGROV-1 = assay: Growth inhibition of human IGROV1 cells assessed as cell growth at 0.1 uM incubated for 48 hrs by sulforhodamine B assay relative to control; format: functional; details: IGROV-1, 48 h, read-out: Activity
# OVCAR-3 = assay: Growth inhibition of human OVCAR3 cells assessed as cell growth at 0.1 uM incubated for 48 hrs by sulforhodamine B assay relative to control; format: functional; details: OVCAR-3, 48 h, read-out: Activity
# SN12C = assay: Growth inhibition of human SN12C cells assessed as cell growth at 0.1 uM incubated for 48 hrs by sulforhodamine B assay relative to control; format: functional; details: read-out: Activity
# Hs-578T [8] = assay: Growth inhibition of human Hs578T cells assessed as cell growth at 0.1 uM incubated for 48 hrs by sulforhodamine B assay relative to control; format: functional; details: read-out: Activity
# NCI-H23 [9] = assay: Growth inhibition of human NCI-H23 cells assessed as cell growth at 1 uM incubated for 48 hrs by sulforhodamine B assay relative to control; format: functional; details: NCI-H23, 48 h, read-out: Activity
# SNB-75 [10] = assay: Growth inhibition of human SNB75 cells assessed as cell growth at 1 uM incubated for 48 hrs by sulforhodamine B assay relative to control; format: functional; details: SNB-75, 48 h, read-out: Activity
# U-251 = assay: Growth inhibition of human U251 cells assessed as cell growth at 1 uM incubated for 48 hrs by sulforhodamine B assay relative to control; format: functional; details: U-251, 48 h, read-out: Activity
# OVCAR-5 = assay: Growth inhibition of human OVCAR5 cells assessed as cell growth at 1 uM incubated for 48 hrs by sulforhodamine B assay relative to control; format: functional; details: OVCAR-5, 48 h, read-out: Activity
# 786-0 = assay: Growth inhibition of human 786-0 cells assessed as cell growth at 1 uM incubated for 48 hrs by sulforhodamine B assay relative to control; format: functional; details: 786-0, 48 h, read-out: Activity
# CAKI-1 = assay: Growth inhibition of human Caki1 cells assessed as cell growth at 1 uM incubated for 48 hrs by sulforhodamine B assay relative to control; format: functional; details: CAKI-1, 48 h, read-out: Activity
# HCT-15 [11] = assay: Growth inhibition of human HCT15 cells assessed as cell growth at 100 uM incubated for 48 hrs by sulforhodamine B assay relative to control; format: functional; details: HCT-15, 48 h, read-out: Activity
# HT-29 = assay: Growth inhibition of human HT-29 cells assessed as cell growth at 100 uM incubated for 48 hrs by sulforhodamine B assay relative to control; format: functional; details: HT-29, 48 h, read-out: Activity
# UO-31 = assay: Growth inhibition of human UO31 cells assessed as cell growth at 100 uM incubated for 48 hrs by sulforhodamine B assay relative to control; format: functional; details: UO-31, 48 h, read-out: Activity
# BT-549 = assay: Growth inhibition of human BT549 cells assessed as cell growth at 100 uM incubated for 48 hrs by sulforhodamine B assay relative to control; format: functional; details: BT-549, 48 h, read-out: Activity
# MDA-MB-468 = assay: Growth inhibition of human MDA-MB-468 cells assessed as cell growth at 100 uM incubated for 48 hrs by sulforhodamine B assay relative to control; format: functional; details: MDA-MB-468, 48 h, read-out: Activity
# [12] = read-out: LC50 (the source's name)
# [13] = read-out: pLC50 (the source's name) (converted)
compound,measurement,setting,value
COc1cc(Cl)cc(-c2nn(-c3cccc(NC(=O)c4cccc(C(F)(F)F)c4)c3)cc2-c2ccncc2)c1,growth at 10 µM,TK-10,72.7%
same,GI50,NCI-H522; read-out: GI50,1.9 µM
same,CC50,NCI-H522; [12],> 100 µM
same,TGI,NCI-H522; read-out: TGI,> 100 µM
same,GI50,NCI-H522; read-out: pGI50 (converted),2 µM
same,CC50,NCI-H522; [13],> 100 µM
same,TGI,NCI-H522; read-out: pTGI (converted),> 100 µM
same,GI50,HCT-15 [1]; read-out: GI50,3.36 µM
same,CC50,HCT-15 [1]; [12],> 100 µM
same,TGI,HCT-15 [1]; read-out: TGI,> 100 µM
same,GI50,HCT-15 [1]; read-out: pGI50 (converted),3.31 µM
same,CC50,HCT-15 [1]; [13],> 100 µM
same,TGI,HCT-15 [1]; read-out: pTGI (converted),> 100 µM
same,GI50,Malme-3M; read-out: GI50,> 100 µM
same,CC50,Malme-3M; [12],> 100 µM
same,TGI,Malme-3M; read-out: TGI,> 100 µM
same,GI50,Malme-3M; read-out: pGI50 (converted),> 100 µM
same,CC50,Malme-3M; [13],> 100 µM
same,TGI,Malme-3M; read-out: pTGI (converted),> 100 µM
same,GI50,OVCAR-8; read-out: GI50,5.58 µM
same,CC50,OVCAR-8; [12],> 100 µM
same,TGI,OVCAR-8; read-out: TGI,> 100 µM
same,GI50,OVCAR-8; read-out: pGI50 (converted),6.92 µM
same,CC50,OVCAR-8; [13],> 100 µM
same,TGI,OVCAR-8; read-out: pTGI (converted),> 100 µM
same,GI50,Hs-578T [2]; read-out: GI50,> 100 µM
same,CC50,Hs-578T [2]; [12],> 100 µM
same,TGI,Hs-578T [2]; read-out: TGI,> 100 µM
same,GI50,Hs-578T [2]; read-out: pGI50 (converted),> 100 µM
same,CC50,Hs-578T [2]; [13],> 100 µM
same,TGI,Hs-578T [2]; read-out: pTGI (converted),> 100 µM
same,growth at 0.01 µM,HCT-116 [3],100%
same,growth at 0.01 µM,SNB-19,96%
same,growth at 0.01 µM,SNB-75 [4],90%
same,growth at 0.01 µM,RXF 393,58%
same,growth at 0.1 µM,SR,54%
same,growth at 0.1 µM,NCI-H23 [5],97%
same,growth at 0.1 µM,HCT-116 [6],94%
same,growth at 0.1 µM,SF-268,100%
same,growth at 0.1 µM,SNB-75 [7],54%
same,growth at 0.1 µM,M14,93%
same,growth at 0.1 µM,IGROV-1,100%
same,growth at 0.1 µM,OVCAR-3,108%
same,growth at 0.1 µM,SN12C,99%
same,growth at 0.1 µM,Hs-578T [8],89%
same,growth at 1 µM,NCI-H23 [9],94%
same,growth at 1 µM,SNB-75 [10],70%
same,growth at 1 µM,U-251,65%
same,growth at 1 µM,OVCAR-5,96%
same,growth at 1 µM,786-0,56%
same,growth at 1 µM,CAKI-1,90%
same,growth at 100 µM,HCT-15 [11],28%
same,growth at 100 µM,HT-29,34%
same,growth at 100 µM,UO-31,37%
same,growth at 100 µM,BT-549,54%
same,growth at 100 µM,MDA-MB-468,28%
